From PMC8596838, “Xylose‐Configured Cyclophellitols as Selective Inhibitors for Glucocerebrosidase” (Chembiochem, 2021)
Like-named read-outs stand apart in the source and are kept apart here.

Experiments:
Format in all cases: biochemical
[1] = biological target: T1, rhGBA (recombinant human GBA, Imiglucerase) (Homo sapiens, UniProt P04062, R534H); experiment: Fluorogenic substrate (4-MU-β-D-glucoside) enzymatic assay, rhGBA; conditions: for inhibitory activity against GBA: in vitro, 30 min
T1 construct: purchased Sanofi Genzyme (Cambridge, MA, USA)
T1 sequence (P04062 40-536 R534H): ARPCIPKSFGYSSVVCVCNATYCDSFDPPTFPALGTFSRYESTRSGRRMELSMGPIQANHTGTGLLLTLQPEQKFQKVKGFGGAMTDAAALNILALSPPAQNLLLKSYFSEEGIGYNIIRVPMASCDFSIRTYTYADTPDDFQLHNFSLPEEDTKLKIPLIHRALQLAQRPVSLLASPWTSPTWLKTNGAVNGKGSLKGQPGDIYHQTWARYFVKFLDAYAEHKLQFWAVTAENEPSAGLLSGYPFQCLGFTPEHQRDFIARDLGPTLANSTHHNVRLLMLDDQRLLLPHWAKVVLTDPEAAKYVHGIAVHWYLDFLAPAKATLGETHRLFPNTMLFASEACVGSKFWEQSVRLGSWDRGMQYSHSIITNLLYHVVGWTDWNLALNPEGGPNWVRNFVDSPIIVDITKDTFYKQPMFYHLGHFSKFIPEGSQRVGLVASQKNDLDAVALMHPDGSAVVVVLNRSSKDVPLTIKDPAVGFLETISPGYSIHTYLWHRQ
Procedure: (§1) Using fluorogenic substrate‐based assays, we determined apparent IC50 values at 30 min incubation time of the xylo‐cyclophellitols in rhGBA, and GBA2 and GBA3 lysates of cells expressing only each of the enzymes specifically.
(§2) Enzyme activity assays: All assays were performed with lysates of HEK293T cells or zebrafish larvae in 96‐well plates at 37 °C. Samples were diluted with McIlvaine buffer (150 mM citric acid‐Na2HPO4) to a final volume of 25 μL, at pH appropriate for each enzyme. Assays were performed by incubating the samples with 100 μL 4‐methylumbelliferyl‐β‐D‐glucoside substrates diluted in McIlvaine buffer (with 0.1 % (w/v) bovine serum albumin (BSA)) for a period of 30 min or 3 h. The substrate mixtures used for each enzyme were as follows: GBA, 3.75 mM 4‐MU‐β‐D‐glucopyranoside (Glycosynth, Warrington Cheshire, UK) at pH 5.2, supplemented with 0.2 % (w/v) sodium taurocholate, 0.1 % (v/v) Triton X‐100, 0.1 % (w/v) bovine serum albumin (BSA); GBA2, 3.75 mM 4 MU‐β‐D‐glucopyranoside at pH 5.8; GBA3, 3.75 mM 4‐MU‐β‐D‐glucopyranoside at pH 6.0. After stopping the enzyme reaction with 200 μL 1 M NaOH‐glycine (pH 10.3), 4‐methylumbelliferone fluorescence was measured with a fluorimeter LS55 (Perkin Elmer, Waltham, MA, USA) with λEX 366 nm and λEM 445 nm. Enzyme activities were determined by subtraction of background (measured for incubations without enzyme). IC50 values were determined exactly as earlier described.[36]
(§3) The IC50 values were determined using a fluorogenic enzymatic assay. For GBA, 3.16 ng (53 fmol) of rhGBA, (recombinant human GBA, Imiglucerase) obtained from Sanofi Genzyme (Cambridge, MA, USA), was prepared in 12.5 μL McIlvaine buffer (150 mM, pH 5.2) supplemented with 0.1 % (v/v) Triton X‐100, and 0.2 % (w/v) sodium taurocholate, 0.1 % (w/v) bovine serum albumin (BSA). The enzyme was incubated with 12.5 μL of inhibitors diluted in McIlvaine buffer (150 mM, pH 5.2) at 37 °C for 30 min. In the case of GBA2 or GBA3, lysates of GBA/GBA2 KO HEK293T cells overexpressing GBA2 or GBA3, respectively where used. The enzymatic activity of GBA, GBA2 and GBA3 were measured with 4MU‐β‐D‐glucoside substrate as described above.

[2] = biological target: T2, GBA2 (Homo sapiens, UniProt Q9HCG7); experiment: Fluorogenic substrate enzymatic assay, lysate of GBA/GBA2 KO HEK293T cells overexpressing GBA2; conditions: for (Ratio) GBA2/GBA / GBA2/GBA ratio, 3 h: IC50 ratio; for (Ratio) GBA2/GBA / inhibitory activity against GBA2: in vitro, 30 min; for IC50: n=3
T2 construct: expressed in transfected cells; host or cells: HEK293T (GBA/GBA2 KO background for the fluorogenic assay; endogenous-GBA background with GBA2 and GBA3 overexpressed for ABPP and intact-cell assays)
T2 sequence (Q9HCG7 1-927): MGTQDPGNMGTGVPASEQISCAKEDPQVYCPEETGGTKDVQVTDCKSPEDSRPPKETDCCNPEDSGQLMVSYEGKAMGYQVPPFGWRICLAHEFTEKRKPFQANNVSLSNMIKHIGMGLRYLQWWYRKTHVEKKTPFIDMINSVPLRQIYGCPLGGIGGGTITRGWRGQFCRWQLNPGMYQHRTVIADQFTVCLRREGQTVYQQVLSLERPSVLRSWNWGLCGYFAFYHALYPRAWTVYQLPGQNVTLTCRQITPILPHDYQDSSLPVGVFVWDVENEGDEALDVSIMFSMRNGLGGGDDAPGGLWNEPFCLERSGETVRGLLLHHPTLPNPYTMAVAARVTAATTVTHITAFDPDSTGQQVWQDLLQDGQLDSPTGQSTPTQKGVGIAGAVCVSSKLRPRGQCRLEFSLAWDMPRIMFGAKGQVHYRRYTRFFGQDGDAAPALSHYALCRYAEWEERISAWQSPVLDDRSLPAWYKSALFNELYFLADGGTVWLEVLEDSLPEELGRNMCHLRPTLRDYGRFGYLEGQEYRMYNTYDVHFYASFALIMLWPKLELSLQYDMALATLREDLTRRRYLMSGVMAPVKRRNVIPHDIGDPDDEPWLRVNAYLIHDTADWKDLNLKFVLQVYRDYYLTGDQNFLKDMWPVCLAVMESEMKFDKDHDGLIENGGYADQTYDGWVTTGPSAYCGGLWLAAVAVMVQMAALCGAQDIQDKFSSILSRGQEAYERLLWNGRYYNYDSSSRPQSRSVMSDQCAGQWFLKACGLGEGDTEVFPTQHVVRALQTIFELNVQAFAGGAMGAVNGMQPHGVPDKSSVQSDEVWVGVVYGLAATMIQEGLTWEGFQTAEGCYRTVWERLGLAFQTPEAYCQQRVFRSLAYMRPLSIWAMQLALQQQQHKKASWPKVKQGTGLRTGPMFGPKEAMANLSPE
Procedure: as §2
as §3, with “The enzyme was incubated with 12.5 μL of inhibitors diluted in McIlvaine buffer (150 mM, pH 5.2) at 37 °C for 30 min.” left out

[3] = biological target: T3, GBA3 (Homo sapiens, UniProt Q9H227); experiment: Fluorogenic substrate enzymatic assay, lysate of GBA/GBA2 KO HEK293T cells overexpressing GBA3; conditions: for (Ratio) GBA3/GBA: IC50 ratio; for (Ratio) GBA3/GBA / inhibitory activity against GBA3: in vitro, 30 min; for IC50: incubation time 30 min, enzymatic assay, ±SD, n=3, read-out: In vitro apparent IC50 GBA3
T3 construct: expressed in transfected cells; host or cells: HEK293T (GBA/GBA2 KO background for the fluorogenic assay; endogenous-GBA background with GBA2 and GBA3 overexpressed for ABPP and intact-cell assays)
T3 sequence (Q9H227 1-469): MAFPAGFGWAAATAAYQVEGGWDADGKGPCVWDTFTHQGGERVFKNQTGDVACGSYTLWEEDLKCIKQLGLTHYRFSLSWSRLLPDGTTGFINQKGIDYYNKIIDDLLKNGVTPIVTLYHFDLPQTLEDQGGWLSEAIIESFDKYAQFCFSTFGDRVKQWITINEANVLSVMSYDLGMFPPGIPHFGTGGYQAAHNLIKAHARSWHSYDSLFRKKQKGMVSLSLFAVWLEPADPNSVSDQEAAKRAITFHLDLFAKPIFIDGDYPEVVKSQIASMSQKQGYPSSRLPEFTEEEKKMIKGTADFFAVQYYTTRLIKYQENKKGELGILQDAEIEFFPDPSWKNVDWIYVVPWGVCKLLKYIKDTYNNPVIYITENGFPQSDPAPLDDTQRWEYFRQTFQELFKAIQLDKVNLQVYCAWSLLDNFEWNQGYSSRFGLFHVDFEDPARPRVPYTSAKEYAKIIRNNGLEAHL
Procedure: as §1, §2, §3

[4] = biological target: T1, rhGBA (recombinant human GBA, Imiglucerase); experiment: Fluorogenic substrate (4-MU-β-D-glucoside) enzymatic assay, rhGBA
[5] = incubation time 30 min, enzymatic assay, ±SD, n=3, read-out: In vitro apparent IC50 rhGBA
[6] = incubation time 30 min, enzymatic assay, ±SD, read-out: In vitro apparent IC50 GBA2
[7] = enzymatic assay performed for 3 h, read-out: In vitro apparent IC50 GBA2, 3 h

Structure (SMILES)	IC50 [1, 5] [nM]	(Ratio) GBA2/GBA [2]	IC50 [2, 6] [nM]	(Ratio) GBA3/GBA [3]	IC50 [3] [nM]	IC50 [1] [nM]	GBA2/GBA ratio, 3 h ([2]; in vitro 3 h)	IC50 [2, 7] [nM]	increase in inhibitory activity towards GBA2 of aziridines relative to epoxide analogues ([2]; in vitro 3 h)	increase in inhibitory activity towards GBA of aziridines relative to epoxide analogues ([4]; in vitro 3 h)	IC50 ([4]; enzymatic assay performed for 3 h, n=3, read-out: In vitro apparent IC50 rhGBA, 3 h) [nM]	inhibitory activity against GBA [1]	inhibitory activity against GBA2 [2]	inhibitory activity against GBA3 [3]
CN1/C(=C/C=C/C=C/C2=[N+](CCCCCC(=O)NCc3cn(CCCCCCCCN4[C@@H]5[C@H](CO)[C@@H](O)[C@H](O)[C@@H](O)[C@@H]54)nn3)c3ccccc3C2(C)C)C(C)(C)c2ccccc21 (some centres unmarked) [ABP 10, reference compound]	8.1 ± 1.94	2.6	21.5 ± 0.42	1	8.54 ± 1.18									
CC1=CC(C)=[N+]2C1=C(CCCCc1cn(CCCCCCCCN3[C@H]4[C@H](O)[C@@H](O)[C@H](O)C[C@H]43)nn1)c1c(C)cc(C)n1[B-]2(F)F (some centres unmarked) [ABP 8]	2.7 ± 0.45	23	61.2 ± 12	193	522 ± 209									
O=C(CCCCC1SCC2NC(=O)NC21)NCc1cn(CCCCCCCCN2C3CC(O)C(O)C(O)C32)nn1 (centres unmarked) [ABP 7]	164 ± 22.1	295	48300 ± 9010	155	25300 ± 5010									
O[C@H]1[C@H](O)[C@@H](O)[C@@H]2N[C@@H]2[C@@H]1O [compound 14, conduritol B‐aziridine, reference compound]						1630 ± 70	6.6	10800 ± 3300	10–20 fold	less than two‐fold increase				
O[C@H]1[C@H](O)[C@@H](O)[C@@H]2O[C@@H]2[C@@H]1O [compound 13, Conduritol B‐epoxide, reference compound]	34900 ± 1670	>14	> 500000	>14	> 500000		40	105000 ± 5850			2630 ± 340			
O[C@@H]1[C@@H](O)[C@H](O)C[C@@H]2N[C@H]12 [compound 12]			55800 ± 2340									no or little inhibitory activity	no or little inhibitory activity	no or little inhibitory activity
O[C@@H]1[C@@H](O)[C@H](O)C[C@@H]2O[C@H]12 [compound 11, α‐D‐xylose‐configured cyclophellitol]												no or little inhibitory activity	no or little inhibitory activity	no or little inhibitory activity
